What was measured:
[1] = system: dendritic cells (DCs); experiment: Calcein release from endosomal vesicles in dendritic cells; format: cell-based, mouse; details: 2 h at 37° C.
Method: DCs were isolated from mouse bone marrow tissues as previously described in Lewis et al. according to the guidelines set forth by the University of Florida Institutional Animal Care and Use Committee.
DCs were plated in 35 mm glass bottom culture dishes at a density of 5×10^4 cells in DC culture medium [DMEM:F12 1:1 (GE Healthcare Life Sciences), 10% fetal bovine serum, 1 mM sodium pyruvate, nonessential amino acids, penicillin-streptomycin, and 20 ng/mL GM-CSF (R&D systems)]. […] As a positive control, a portion of DCs were treated with the membrane permeable Acetoxymethyl ester of calcein (5 μM). Following treatment, cells were washed four times with phosphate buffered saline. New culture medium was added and the cells were imaged with a fluorescent microscope (Axiovert 200M microscope (Carl Zeiss, Oberkochen, Germany) using excitation/emission wavelengths of 495/515 nm at 200-fold magnification.
Images were analyzed by measuring the area of fluorescence per channel (green vs bright field). The values are reported as % relative fluorescence intensity per cell (RFI/cell).

[2] = system: Chinese hamster ovary (CHO-K1) cells; experiment: CytoTox96 LDH cytotoxicity assay; format: cell-based; details: positive control for toxicity
Method: Chinese hamster ovary (CHO-K1) cells were grown in Ham's F12 medium (Mediatech) containing 10% fetal bovine serum (FBS, Hyclone), penicillin (100 units/mL), and streptomycin (100 μg/mL) at 37° C. in a humidified incubator with 5% CO2 [30]. Cell viability was determined via Trypan blue exclusion and was 97% with each passage.
Toxicity of MPs was determined employing CytoTox96 Non-radioactive Cytotoxity Assay (Promega). CHO cells were plated at a density of 10,000 cells per well in a 96 well tissue culture plate in 200 μL of cell culture medium. Cells were maintained at 37° C. in a humidified incubator in a 5% CO2 atmosphere. MPs were added at a ratio of 5, 10, 20, 30, 40, and 50 particles/cell and incubated at 37° C. for 24 h. The culture medium was transferred into wells of a clear bottom 96 well plate. Cells treated with 0.1% Triton X-100 were used as a positive control for 100% toxicity and cell culture medium alone was used for background subtraction for baseline lactate dehydrogenase (LDH) activity (background control). The cell supernatants were incubated with the developing reagents for 30 min per the manufacturer's instructions. The optical density of the developed color was determined by measuring absorbance at 490 nm. […]

Molecule | cytosolic distribution of calcein (fluorescent area over cell area) [1] | LDH release relative to basal background LDH activity in media without cells [2] [fold]
O=C(O)CN(CC(=O)O)Cc1cc2c(cc1O)Oc1cc(O)c(CN(CC(=O)O)CC(=O)O)cc1C21OC(=O)c2ccccc21 [calcein alone] | less than 10% | 
Acetoxymethyl ester of calcein [calcein AM] | ~95% | 
Triton X-100 |  | 21

— patent US10512607B2, “Polymeric particles, method for cytosolic delivery of cargo, methods of making the particles” (University of Florida Research Foundation, Inc., priority 2015, dated 2019)
